Series [1] deals with mPTP. In words: mPTP activity assay in isolated rat liver mitochondria (Ca2+ retention, Fluo5N, FLIPR). It is filed as biochemical. The following applies: isolated rat liver mitochondria; average value from multiple experiments (n ≥ 2). The source says:
Pharmacological inhibition or modulation of the mPTP can be measured in well characterised ‘Ca^2+ retention’ assays performed in isolated mitochondria. In vitro, isolated mitochondria rapidly sequester exogenous Ca^2+ until the intramitochondrial Ca^2+ concentration reaches the threshold for mPTP activation. Once the pore is activated, mitochondrial integrity is compromised and the stored Ca^2+ is released. The distribution of Ca^2+ between extra- and intra-mitochondrial compartments can be measured in real time with the use of membrane-impermeant Ca^2+ sensitive fluorescent dyes. Depending on the configuration of the assay, inhibition or modulation of the mPTP either delays the opening of the pore or increases the concentration of Ca^2+ required to induce mPTP opening.
mPTP activity was measured in mitochondria freshly isolated from female Sprague Dawley (250 to 300 gram) rat livers using the following method. Cervical dislocation was performed on the rat. The liver was then perfused in-situ with ˜40 ml cold Dulbecco's Phosphate Buffered Saline (DPBS) prior to dissection and transferred into 30 ml Isolation Buffer (250 mM Sucrose, 10 mM KCl, 1 mM EGTA, 1 mM EDTA, 25 mM HEPES, adjusted to pH 7.5 with 1 M NaOH). Each lobe of the liver was then removed from the buffer, minced using tweezers and a scalpel into ˜5 mm pieces then transferred into a 50 ml Potterton dounce homogenization tube on ice containing 30 ml ice-cold centrifugation buffer (300 mM Trehalose, 25 mM HEPES, 1 mM EGTA, 1 mM EDTA, 10 mM KCl, adjusted to pH 7.5 with 1 M NaOH and supplemented with 0.1% bovine serum albumin (BSA) and complete protease inhibitor cocktail (one tablet of inhibitor per 50 mls of buffer). Homogenisation was carried out using a teflon pestle at 1800 rpm. The slurry was centrifuged at 800 g for 10 min at 4° C., then the supernatant centrifuged at 10,000 g for 10 min. The pellet was washed once with FLIPR assay buffer (75 mM Mannitol, 25 mM Sucrose, 5 mM Potassium Phosphate Monobasic, 20 mM Tris base, 100 mM KCl, 0.1% BSA adjusted to pH 7.4 with 5 M HCl) centrifuged again, then resuspended in FLIPR assay buffer to a concentration of 8.8 mg/ml protein.
Test compounds (10 mM stock in DMSO) were serially diluted in DMSO in half log steps to generate 10 test concentrations (final concentrations in assay 30 μM to 1 nM). An intermediate dilution of 5 μl DMSO samples into 247 μl FLIPR assay buffer was carried out prior to transfer of 5 μl into duplicate wells of a 384 well polypropylene assay plate. Control wells were 0.5% (v/v) DMSO and 5 μM cyclosporin A.
A stock mitochondria/Fluo5N assay solution was prepared in 5.6 ml FLIPR assay buffer (at RT) supplemented with succinate disodium salt (10 mM), rotenone (1 μM), Fluo5N pentapotassium salt (2 μM) and 1 ml mitochondria suspension, then transferred (15 μl) into the assay plate containing test compounds and incubated for 10 min at RT. Assay plates were then transferred to a FLIPR Tetra plate reader (Molecular Devices). Dye fluorescence was then measured every 3 sec for a total of 10 min. After 12 sec, a 2.5 μl bolus of CaCl2 (75 μM) was added from a source plate containing 675 μM CaCl2 in FLIPR assay buffer. IC50 values for test compounds were calculated using the fluorescence value collected at the 10 min timepoint with % inhibition calculated using the DMSO control and cyclosporin A values as […] respectively.

A short description of the next series: FaSSIF solubility. It is filed as physicochemical. The following applies: kinetic from dmso stock, Fasted state simulated intestinal fluid, 2 hr at 25° C. Here is the method: (§1) Test compounds were prepared as 10 mM stocks in DMSO and 15 μl samples transferred in duplicate into 1.5 mL glass flat bottom vials (BioTech Solutions). Fasted state simulated intestinal fluid (FaSSIF) or PBS (pH 7.4) was added to each vial to final volume of 500 μl. One PTFE encapsulated stir stick (V&P Scientific) was placed in each vial before sealing with PTFE/SIL plugs (BioTech Solutions). Vials were shaken at 1100 rpm for 2 hr at 25° C. Samples were then filtered through MultiScreen Solvinert filter plates (Millipore) via vacuum filtration. Aliquots of filtrate (5 μl) plus 5 μl DMSO were diluted in 490 μl 50% acetonitrile in water containing internal standard. The filtrate was analysed and quantified against a standard of known concentration using LC-MS/MS. Solubility values of the test compound and control compound were calculated as follows: [Sample]=(Area ratiosample*INJ VOL STD*DFsample*[STD])/(Area ratio STD*INJ VOLsample).

Series [2] in a line: Hepatocyte clearance assay, rat. Format: in vitro ADME. The settings on record: cryopreserved primary rat hepatocytes, average value from two experiments, read-out: Rat heps intrinsic clearance (CLint). Here is the method: (§2) In vitro clearance studies were performed in primary rat and human hepatocytes (BioIVT). Vials of cryopreserved rat or human hepatocytes were thawed in a 37° C. water bath for 2 min. Cells were transferred into thawing medium (Williams' Medium E containing 30% Percoll, 1× GlutaMAX-1, 15 mM HEPES, 5% fetal bovine serum (FBS), 4 μg/ml insulin, 1 μM dexamethasone), centrifuged at 100 g for 10 min then resuspended in culture medium (Leibovitz's L-15 Medium) at a concentration of 0.5×10^6 viable cells/mL (number of viable cells assessed using AO/PI staining). Hepatocytes (198 μL) were transferred into wells of a 96-well non-coated plate and placed in a 37° C. incubator for 10 min. Test compound solutions were prepared from 10 mM stocks in DMSO, diluted to 100 μM in 50% (v/v in water) acetonitrile. Test compound samples (2 μl) were added to each well of hepatocytes and incubated at 37° C. Samples (25 μl) were collected at t=0, 15, 30, […] and 120 min, mixed with 6 volumes (150 μl) of acetonitrile containing internal standard (100 nM alprazolam, 200 nM caffeine and 100 nM tolbutamide), vortexed for 5 min and centrifuged for 45 min at 3220 g. An aliquot of supernatant (100 μL) was diluted with 100 μL ultra-pure water, and the mixture was used for LC/MS/MS analysis. All incubations were performed in duplicate. Peak areas were determined from extracted ion chromatograms. The slope value, k, was determined by linear regression of the natural logarithm of the remaining percentage of the parent drug vs. incubation time curve. The in vitro half-life (in vitro t1/2) was determined from the slope value: in vitro t1/2=0.693/k. Conversion of the in vitro t1/2 (in min) into the in vitro intrinsic clearance (in vitro CLint, in μL/min/1×10^6 cells) was done using the following equation (mean of duplicate determinations): • in vitro CLint=kV/N • V=incubation volume (0.2 mL) • N=number of hepatocytes per well (0.1×10^6 cells). Microsomal Clearance Assay

The nature of series [3]: Hepatocyte clearance assay, human. It is filed as in vitro ADME. The following applies: cryopreserved primary human hepatocytes, average value from two experiments, read-out: Human heps intrinsic clearance (CLint). The protocol:
as §2

Series [4] has as its system mPTP. In words: mPTP activity assay in isolated rat brain mitochondria. Format: biochemical. The settings on record: isolated rat brain mitochondria. The protocol: MPTP activity was measured in brain mitochondria freshly isolated from female Sprague Dawley (250 to 300 gram) rats. Anaesthetised rats were perfused in-situ with ˜40 ml cold Dulbecco's Phosphate Buffered Saline (DPBS), then brains dissected and transferred into 30 ml Isolation Buffer (225 mM mannitol, 75 mM sucrose, 1 mM EGTA, adjusted to pH 7.4 with 1 M NaOH). The brain was minced using tweezers and a scalpel into ˜5 mm pieces then transferred into a 50 ml Potterton Dounce homogenization tube on ice containing 10 ml ice-cold isolation buffer (as above with addition of Complete Protease inhibitor; 1 tablet per 50 ml buffer). Homogenisation was carried out using a teflon pestle at 1800 rpm. The slurry was centrifuged at 2000 g for 10 min at 4° C., then the supernatant centrifuged at 12,000 g for 9 min. The pellet was resuspended with a dounce homogeniser in isolation buffer as above but with the addition of 0.02% digitonin, centrifuged at 12,000 g for 11 min and finally resuspended in 5 ml modified isolation buffer (as above but with EGTA reduced to 0.1 mM).
Test compounds were prepared in 384 well polypropylene assay plates as described above for the liver mitochondria assay. A stock mitochondria/Fluo5N assay solution was prepared in 5.6 ml assay buffer (120 mM mannitol, 40 mM MOPS, 5 mM KH2PO4, 60 mM KCl, 10 mM pyruvate, 2 mM malate, 2 mM MgCl2, 20 μM ADP, 1.26 μM oligomycin A, adjusted to pH 7.4) supplemented with Fluo5N pentapotassium salt (2 μM) and 1 ml mitochondria suspension, then transferred (15 μl) into the assay plate containing test compounds and incubated for 10 min at RT. Assay plates were then transferred to a FLIPR Tetra plate reader (Molecular Devices). Dye fluorescence was then measured every 3 sec for a total of 10 min. After 12 sec, a 2.5 μl bolus of Ca2+(75 μM) was added from a source plate containing 675 μM CaCl2 in FLIPR assay buffer. IC50 values for test compounds were calculated using the fluorescence value collected at the 10 min timepoint with % inhibition calculated using the DMSO control and cyclosporin A values at […].

The next series in a line: PBS solubility. It is filed as physicochemical. The following applies: aqueous buffer, kinetic from dmso stock; PBS pH 7.4, 2 hr at 25° C. The protocol: as §1

The structures appear in SMILES notation. In brackets after ≈: the same amount, converted by molar mass.

The values below come from patent publication US12497359B2, “Acrylamide derivatives” (NRG Therapeutics Ltd, priority 2020, dated 2025).

The solubility is how much of the substance goes into solution per volume.

In the case of `CO[C@H]1Cc2ccccc2[C@@H]1NC(=O)/C=C/c1ccc2cn[nH]c2c1` [Example 37, (E)-3-(1H-indazol-6-yl)-N-((1S,2S)-2-methoxy-2,3-dihydro-1H-inden-1-yl)acrylamide], the “mPTP Rat liver pIC50*” value in the series on mPTP [1] is 7.5. The compound further displayed a solubility at 2 h in “FaSSIF solubility” of 80 µM (≈ 26.7 µg/mL). For the same compound, the hepatocyte CLint at 1 µM in series [2] was found to be 25 µL/min/1e6 cells; in series [3], 13 µL/min/1e6 cells.
For `Cc1cccc(C)c1NC(=O)/C=C/c1ccc2cn[nH]c2c1` [Example 24, (E)-N-(2,6-dimethylphenyl)-3-(1H-indazol-6-yl)acrylamide], in the series on mPTP [1], the “mPTP Rat liver pIC50*” value was 7.6. Besides, in the series on mPTP [4], the “mPTP Rat brain pIC50” value worked out at 7.6. Also, the solubility at 2 h in “PBS solubility” is 1.2 µM (≈ 0.35 µg/mL); in “FaSSIF solubility”, 3 µM (≈ 0.874 µg/mL).
For the compound `O=C(/C=C/c1ccc2cn[nH]c2n1)NC1CCc2ccccc21` (stereo not drawn) [Example 36, (E)-N-(2,3-dihydro-1H-inden-1-yl)-3-(1H-pyrazolo[3,4-b]pyridin-6-yl)acrylamide], the “mPTP Rat liver pIC50*” value in the series on mPTP [1] came to 6.3. In the series “FaSSIF solubility”, this compound had a solubility at 2 h of 45 µM (≈ 13.7 µg/mL). The hepatocyte CLint at 1 µM in series [3] is 12 µL/min/1e6 cells.
As to `O=C(/C=C/c1ccc2cn[nH]c2c1)Nc1ccccc1CCN1CC(F)C1` [Example 32, (E)-N-(2-(2-(3-fluoroazetidin-1-yl)ethyl)phenyl)-3-(1H-indazol-6-yl)acrylamide], in the series on mPTP [1], the “mPTP Rat liver pIC50*” value was determined as 5.8. The same compound had a solubility at 2 h in “FaSSIF solubility” of 296 µM (≈ 108 µg/mL). Besides, the hepatocyte CLint at 1 µM in series [2] is 64 µL/min/1e6 cells; in series [3] it was 31 µL/min/1e6 cells.
